# Assay results reported in the supplement of paper PMC13380429.
# ± gives the standard deviation of the averaged measurements.
# How the values were obtained:
# Conditions in all cases: 72 h
# [1] = tested on: Calu-3; assay: drug sensitivity score (DSS) for viability; higher = more toxic; extreme values may be limits of the assay
# [2] = tested on: U2OS; assay: as above
# [3] = tested on: HepG2; assay: as above
# [4] = tested on: Vero E6; assay: as above
# [5] = tested on: Caco-2; assay: as above
# [6] = tested on: Calu-3; assay: cell viability relative to DMSO; higher = less toxic
# [7] = tested on: U2OS; assay: as above
# [8] = tested on: HepG2; assay: as above
# [9] = tested on: Vero E6; assay: as above
# [10] = tested on: Caco-2; assay: as above
# [11] = tested on: Calu-3; assay: relative viability EC50 (midpoint between 100% and the lowest measured viability); higher = less toxic
# [12] = tested on: U2OS; assay: as above
# [13] = tested on: HepG2; assay: as above
# [14] = tested on: Vero E6; assay: as above
# [15] = tested on: Caco-2; assay: as above
Structure (SMILES),drug sensitivity score [1],drug sensitivity score [2],drug sensitivity score [3],drug sensitivity score [4],drug sensitivity score [5],cell viability ([6]; 1 nM) [%],cell viability ([6]; 10 nM) [%],cell viability ([6]; 100 nM) [%],cell viability ([6]; 1000 nM) [%],cell viability ([6]; 10000 nM) [%],cell viability ([7]; 1 nM) [%],cell viability ([7]; 10 nM) [%],cell viability ([7]; 100 nM) [%],cell viability ([7]; 1000 nM) [%],cell viability ([7]; 10000 nM) [%],cell viability ([8]; 1 nM) [%],cell viability ([8]; 10 nM) [%],cell viability ([8]; 100 nM) [%],cell viability ([8]; 1000 nM) [%],cell viability ([8]; 10000 nM) [%],cell viability ([9]; 1 nM) [%],cell viability ([9]; 10 nM) [%],cell viability ([9]; 100 nM) [%],cell viability ([9]; 1000 nM) [%],cell viability ([9]; 10000 nM) [%],cell viability ([10]; 1 nM) [%],cell viability ([10]; 10 nM) [%],cell viability ([10]; 100 nM) [%],cell viability ([10]; 1000 nM) [%],cell viability ([10]; 10000 nM) [%],relative viability EC50 [11] [µM],relative viability EC50 [12] [µM],relative viability EC50 [13] [µM],relative viability EC50 [14] [µM],relative viability EC50 [15] [µM]
CC(C)c1cc(CNc2nc(Nc3cc(C4CC4)[nH]n3)cc(N3CCN(C)CC3)n2)on1 [XL228],8.8,15.1,16.2,7.8,6.7,95.7,99.3,87.3,61.5,33.9,104,103,84.8,30,0,95.3,98.3,62.4,40.6,7.4,94,97.8,101,75.3,23,111,94.4,93,72.5,33.1,0.593,0.47,0.266,1.35,1.22
CNC(=O)c1ccc2c(c1)S(=O)(=O)c1ccccc1C2=O [BW-616U],0,0,0,0,0,115,104,102,100,96.7,99.1,95,100,99.4,98.9,109,106,92.7,110,104,95.2,95.9,98.1,109,106,96.6,108,111,92.4,99.4,> 10,> 10,> 10,> 10,> 10
CC(C)n1cnc2c(C(=O)N[C@H]3CN4CCC3CC4)cc(Cl)cc21,0,0,0,0,0,93.9,101,84.9,92.9,90.6,104,103,97.1,105,97.8,116,102,104,98.2,97.6,100,95.8,97.5,94.9,100,106,106,94.4,101,94.9,> 10,> 10,> 10,> 10,> 10
C=C1/C(=C\C=C2/CCC[C@]3(C)[C@@H]([C@H](C)CCCC(C)C)CC[C@@H]23)C[C@@H](O)C[C@@H]1O [alfacalcidol],0,0,0,0,1.5,90.9,94.3,99.6,87.5,101,94.1,93.7,99,89.1,91.5,91.4,105,98.4,108,102,90.2,98.3,92.2,97.1,101,98.2,98.1,92.5,85,85.9,> 10,> 10,> 10,> 10,> 10
COc1ccc(Cc2cnc(N)nc2N)cc1OC [diaveridine],0,0,0,0,0,86.6,94.4,97.7,84.3,88.9,105,103,107,96.7,102,95.6,102,89.2,95.8,98,99.5,104,97,98.2,94.3,96.9,90.4,100,93,96.6,> 10,> 10,> 10,> 10,> 10
NCCOB(c1ccccc1)c1ccccc1 [2-APB],0,0,0,0,0,101,96.3,99.1,105,103,96,95.6,100,100,104,96.8,112,91.2,93.4,92.1,110,108,97.4,101,105,91,93.3,98.5,94.3,104,> 10,> 10,> 10,> 10,> 10
O=C(NCc1ccc2c(c1)OCO2)c1c(Cl)cccc1Cl [alda-1],0,0,0,0,0,91.7,100,109,102,108,103,99.8,99,100,100,92,105,99.8,101,95.9,94.2,105,98.8,91.2,98.3,93,91.3,100,93.1,99.1,> 10,> 10,> 10,> 10,> 10
OC(CCN1CCCCC1)(c1ccccc1)c1ccccc1 [pridinol],0,0,0,0,0,97.8,96.9,91.7,99.4,93.2,99.5,102,93.7,93.5,100,101,95.3,101,106,106,99.8,103,100,93.8,98.5,96.9,108,97.9,94.9,99,> 10,> 10,> 10,> 10,> 10
CCCCCCCCCCOc1cc2c(O)c(C(=O)OCC)cnc2cc1OCC [decoquinate],0,0,0,0,0,99.8,107,106,98.2,105,100,99.8,99,99.6,100,95.9,103,98.9,107,96.2,102,103,105,96.7,103,101,92.6,93.3,89.4,96.6,> 10,> 10,> 10,> 10,> 10
CC(=O)OCC(=O)[C@@]1(O)CC[C@H]2[C@@H]3CCC4=CC(=O)CC[C@]4(C)[C@H]3[C@@H](O)C[C@@]21C [hydrocortisone-acetate],0,0,0,0,0,93.8,102,97.9,96.8,89.2,94.6,97,93,97.7,98.6,101,105,105,99.5,103,95.7,99.4,96.2,95.4,101,92.6,94.4,106,97.6,107,> 10,> 10,> 10,> 10,> 10
COc1ccc([C@@H]2CC(=O)c3c(O)cc(O[C@@H]4O[C@H](CO[C@@H]5O[C@@H](C)[C@H](O)[C@@H](O)[C@H]5O)[C@@H](O)[C@H](O)[C@H]4O)cc3O2)cc1O [hesperidin],0,0,0.2,0,0,89.1,86.3,91.6,97.9,101,97.5,97.9,102,99.7,104,99,109,99.1,103,83.7,103,102,99,98.5,99.8,98.3,103,97.5,88.1,98.9,> 10,> 10,> 10,> 10,> 10
CCCCCCCC(=O)N[C@H](CN1CCCC1)[C@H](O)c1ccc2c(c1)OCCO2 [eliglustat],0,0,0,3.1,0,98.7,98.3,96,99.5,93.2,101,95.4,97.8,94.6,95.3,100,109,95.8,108,92,97.3,91.6,84.3,84.2,85.5,103,96.7,95.1,99.8,99.8,> 10,> 10,> 10,> 10,> 10
OCC(Br)(Br)Br [tribromoethanol],0,0,0.5,0,0,91.4,95.9,98.3,106,94.2,95.3,98.3,96.7,98.8,101,99.3,102,102,97,85.4,106,96.3,108,87.7,99.9,81.4,116,92.7,98.8,107,> 10,> 10,> 10,> 10,> 10
CC(C)NC[C@@H](O)COc1ccc(CC(N)=O)cc1 (racemic) [atenolol-(+/-)],0,0,0.05 ± 0.071,0.1 ± 0.14,0.25 ± 0.35,94.2 ± 4.5,101 ± 11,96.5 ± 3.4,97.8 ± 2.3,102 ± 2.6,98.2 ± 3.5,96 ± 3,100.1 ± 0.28,97 ± 0.71,99.1 ± 3.7,101 ± 10,92 ± 14,98.9 ± 9.5,96.2 ± 8.2,99.2 ± 18,103 ± 4.4,85.3 ± 10,105 ± 4.5,92.4 ± 13,97 ± 5.9,99.8 ± 9.3,99 ± 11,105 ± 7,88.3 ± 0.99,92.1 ± 0.85,> 10,> 10,> 10,> 10,> 10
